From PMC12935919 (Frontiers in Pharmacology, 2026)
No end group written: not given here.

Key:
C2C12 cells = assay: Indirect immunofluorescence (MyoD, MYH3) and fusion index; type: cell-based
Description: Differentiated C2C12 cells cultured on coverslips were fixed at room temperature for 10 min with PBS containing 3.7% paraformaldehyde. Next, the samples were permeabilized with 0.25% Triton X-100/PBS for 10 min, blocked with 1% BSA/PBS, and incubated overnight with primary antibodies, anti-MyoD (Santa Cruz, sc-377460) and anti-MYH3 (Santa Cruz, sc-53091), followed by washing with PBS. The samples were then incubated for 1 h Alexa Fluor 488–conjugated goat anti-mouse IgG H&L (abcam, ab150113). Nuclei were stained with 4′,6-diamidino-2-phenylindole (DAPI; blue) for 5 min. The coverslips were mounted onto glass slides using an aqueous mounting solution (Biomeda, Foster City, CA, USA) and left to dry. Images were captured using a confocal laser-scanning microscope (LEICA, Wetzlar, Germany) at ×200 and ×400 magnifications for MYH3 and MyoD, respectively. The fluorescence intensity of each marker was quantified using ImageJ. For fusion index analysis, MYH3-stained images were used to quantify myotube formation by counting the number of DAPI-positive nuclei located within MYH3-positive multinucleated myotubes (defined as MYH3-positive cells containing ≥2 nuclei) and the total number of nuclei per field. Fusion index (%) was calculated as (nuclei within MYH3-positive multinucleated myotubes/total nuclei) × 100. Fusion index was calculated from multiple randomly selected fields captured under identical imaging settings and quantified in ImageJ.

SAMP8 mice = assay: Immunofluorescence in skeletal muscle tissues; type: in vivo, mouse; conditions: oral gavage 45 weeks, 20 mg in 200 µL PBS
Description: Eight week old male senescence-accelerated mouse-prone 8 (SAMP8)/Ta Slc and senescence-accelerated mouse-resistant 1 (SAMR1)/Ta Slc mice (weighing 30 ± 2 g) were purchased from Central Lab Animal Inc. (Seoul, Korea) and housed at 24 °C in cages under a 12/12 h light/dark cycle with ad libitum access to food and water. […] Mice in all groups were dosed once daily by oral gavage for 45 weeks. […] This study was approved by the Institutional Animal Care and Use Committee (approval number CG-R22-001).
Muscle tissues fixed in formalin were sectioned into 5-μm paraffin section. They were treated with heat-mediated antigen retrieval in TRS buffer TRS buffer (pH 6.2) and peroxide-blocked using reagent (Epredia, TA-125-PBQ). Primary antibodies—anti-myostatin (Abcam, ab124721), anti-atrogin-1/MAFbx (Santa Cruz, sc-166806), and anti-fast MyHC (Abcam, ab91506)—were diluted 1:250 or 1:500 in anti-body diluent (GBI Labs, E09-300) and incubated overnight at 4 °C. […] Nuclei were stained with 4′,6-diamidino-2-phenylindole (DAPI; blue) for 20 min, mounted using Aqua Mounting Media (Biomeda), and imaged at 200× with a confocal fluorescence microscope (LEICA, Wetzlar, Germany). Fluorescence intensities were quantified using ImageJ software, and results were statistically analyzed.

[1] = tested on: patients with muscle atrophy (ICD-10-CM code: M62.5); assay: Clinical trial: muscle mass by DEXA; type: in vivo, human
Description: The study was conducted at Biosite Research Private Limited (Shanthipura, India) under the New Drugs and Clinical Trials Rules (2019) issued by CDSCO (Ministry of Health and Family Welfare, Government of India), and in compliance with GCP, applicable local regulatory requirements, the Declaration of Helsinki ([…]), ICMR guidelines (2017), and ICH-GCP E6 (R2). Ethical approval was obtained from the Excel Hospital Institutional Ethics Committee (ECR/1670/Inst/TG/2022) and ethics committees of other participating centers, and the trial was prospectively registered (CTRI/2024/01/061919). All participants provided written informed consent prior to any study procedures. […] Efficacy endpoints were evaluated as changes from baseline to Week 12; efficacy analyses were conducted in the per-protocol population, and safety analyses included all randomized participants who received at least one dose of study product (Supplementary Figure S2). […] Continuous variables were summarized as N, mean (SD), median, minimum, and maximum, and categorical variables as n (%), with percentages calculated as n/N × 100. Changes from baseline to Week 12 in DEXA-assessed muscle mass, 6-m walk test, and handgrip strength were analyzed using ANCOVA, adjusting for the corresponding baseline value. […]

[2] = tested on: patients with muscle atrophy (ICD-10-CM code: M62.5); assay: Clinical trial: serum biomarkers; type: in vivo, human
Description: The study was conducted at Biosite Research Private Limited (Shanthipura, India) under the New Drugs and Clinical Trials Rules (2019) issued by CDSCO (Ministry of Health and Family Welfare, Government of India), and in compliance with GCP, applicable local regulatory requirements, the Declaration of Helsinki ([…]), ICMR guidelines (2017), and ICH-GCP E6 (R2). Ethical approval was obtained from the Excel Hospital Institutional Ethics Committee (ECR/1670/Inst/TG/2022) and ethics committees of other participating centers, and the trial was prospectively registered (CTRI/2024/01/061919). All participants provided written informed consent prior to any study procedures. Key eligibility criteria included adults aged ≥18 years with low muscle mass by DEXA (men: <7.0 kg/m^2; women: <5.4 kg/m^2) and either low handgrip strength (men: <28 kg; women: <18 kg) or low physical performance (6-m walk speed <1.0 m/s). Major exclusion criteria included uncontrolled systemic disease, musculoskeletal or neurological disorders, recent anabolic steroid use, and concomitant medications known to affect protein metabolism; full inclusion and exclusion criteria are provided in Supplementary Table S1. Of 89 patients screened, seven were screen failures and two withdrew prior to randomization; 80 eligible participants were enrolled and proceeded to the baseline/randomization visit (mean age 38.83 ± 9.91 years; range 23-69). […] The study was double-blind; participants, investigators, and study staff were unaware of treatment allocation throughout the trial. […] Efficacy endpoints were evaluated as changes from baseline to Week 12; efficacy analyses were conducted in the per-protocol population, and safety analyses included all randomized participants who received at least one dose of study product (Supplementary Figure S2). Of 80 randomized participants, 75 completed the study. Statistical analyses were performed using SAS (version 9.4; SAS Institute Inc., Cary, NC, USA). Continuous variables were summarized as N, mean (SD), median, minimum, and maximum, and categorical variables as n (%), with percentages calculated as n/N × 100. Changes from baseline to Week 12 in DEXA-assessed muscle mass, 6-m walk test, and handgrip strength were analyzed using ANCOVA, adjusting for the corresponding baseline value. Least-squares means (LSMs), 95% confidence intervals, and two-sided p-values were reported, with p < 0.05 considered statistically significant.

[3] = Day 3, 100 μM, fluorescence intensity, mean ± SD

Substance: EAEYEHL-OH [Myoki]
- increase in MYH3 expression compared to the control (C2C12 cells; [3]): 191% ± 10.66%
- increase in MyoD expression compared to the control (C2C12 cells; [3]): 190% ± 46.28%
- increase in MYH3 fluorescence staining compared to the control (C2C12 cells; Day 6): 153%
- fast-MyHC fluorescence intensity (SAMP8 mice; n = 5): restored toward SAMR1 levels
- atrogin-1/MAFbx fluorescence intensity, gastrocnemius (SAMP8 mice; n = 5, vs SAMP8 group): significantly decreased
- Lean muscle mass, change from baseline to Week 12 (LS mean) ([1]; Myoki + arginine + maltodextrin, 200 mg peptide/day oral, N = 38, 95% CI (736.90 to 1124.7), placebo 225): 930.8 g
- Lean muscle mass, difference between placebo and treatment (95% CI) ([1]; Week 12, 200 mg/day, ANCOVA, p <0.01): 705.8 g
- IGF-1, change from baseline to Week 12 (LS mean) ([2]; 200 mg peptide/day oral, N = 38, 95% CI (19.49 to 43.40), placebo 13.51): 31.44 ng/mL
- TNF-alpha, change from baseline to Week 12 (LS mean) ([2]; 200 mg peptide/day oral, N = 38, 95% CI (−1.54 to 9.48), placebo 4.3): 3.97 pg/mL
- Creatine kinase (CK-MB), change from baseline to Week 12 (LS mean) ([2]; 200 mg peptide/day oral, N = 38, 95% CI (−2.13 to 1.04), placebo 3.41): -0.54 ng/mL
- IL-6, change from baseline to Week 12 (LS mean) ([2]; 200 mg peptide/day oral, N = 38, 95% CI (−2.59 to 2.67), placebo 1.31): 0.04 pg/mL
- Aspartate aminotransferase, change from baseline to Week 12 (LS mean) ([2]; 200 mg peptide/day oral, N = 38, 95% CI (−6.14 to 0.49), placebo 2.57): −2.83 IU/L
- Sex hormones (Estrogen), change from baseline to Week 12 (LS mean) ([2]; 200 mg peptide/day oral, N = 38, 95% CI (−8.11 to 3.36), placebo −1.98): -2.37 pg/mL
- Myoglobin, change from baseline to Week 12 (LS mean) ([2]; 200 mg peptide/day oral, N = 38, 95% CI (−10.33 to −2.56), placebo 8.15): -6.45 ng/mL
- Sex hormones (testosterone), change from baseline to Week 12 (LS mean) ([2]; 200 mg peptide/day oral, N = 38, 95% CI (−21.09 to 114.17), placebo −29.9): 46.54 pg/mL
- Aspartate aminotransferase, difference between placebo and treatment (95% CI) ([2]; Week 12, 200 mg/day, p 0.025): −5.39 IU/L
- IGF-1, difference between placebo and treatment (95% CI) ([2]; Week 12, 200 mg/day, p 0.038): 17.93 ng/mL
- Creatine kinase (CK-MB), difference between placebo and treatment (95% CI) ([2]; Week 12, 200 mg/day, p <0.01): -3.95 ng/mL
- Myoglobin, difference between placebo and treatment (95% CI) ([2]; Week 12, 200 mg/day, p <0.01): -14.6 ng/mL
